These results are taken from patent publication US4356183A, “Antihypertensive 4-thiazolidinecarboxylic acids (pyridyl derivatives)” (Santen Pharmaceutical Co., Ltd., priority 1978, dated 1982).

Read-outs that look alike come from different tables or passages of the source.

Assay [1] concerns contractile response of isolated guinea pig ileum to angiotensin I. Kind of assay: Inhibition of contractile response of isolated guinea pig ileum to angiotensin I. In kind it is cell-based. The following applies: angiotensin I 0.1 μg/ml, compound added 5 min before, 30° C., read-out: Angiotensin I IC50 (50% inhibition of angiotensin I activity inducing the contraction of guinea pig ileum). From the text: As the method of measurement of angiotensin I-converting enzyme activity, bioassay for the contractile response of isolated smooth muscle or the pressor response of normal animals and biochemical assay for the enzyme isolated from lung or other organs of animals are known. The former is found more advantageous than the latter for the examination of the convertion of angiotensin I to angiotensin II in vivo.
In the present study, therefore, we adopted the bioassay for contractile response of isolated guinea pig ileum to angiotensin I.
(§1) Measurement of inhibitory activity of angiotensin I-converting enzyme
(§2) Isolated guinea pig ileum was suspended in the organ bath containing 20 ml of Tyrode's solution of 30° C. gassed with 95% O2 +5% CO2. The contraction induced by the addition of angiotensin I (0.1 μg/ml) at intervals of 10 minutes was recorded on a recticorder (Nihon Koden) for 90 seconds using FD pick up (ST-1T-H, Nihon Koden).
(§3) The test compounds were added to the bath 5 minutes before the addition of angiotensin I.
The inhibitory activity of angiotensin I-converting enzyme was calculated by the following formula. [formula] A: contractile intensity of angiotensin I before addition of the compound B: contractile intensity of angiotensin I after addition of the compound

For assay [2], the target named is T1, angiotensin I-converting enzyme (Oryctolagus cuniculus, UniProt P12822).
T1 construct: angiotensin I-converting enzyme extracted from rabbit lung; from tissue; host or cells: rabbit lung
T1 sequence (P12822 34-1310): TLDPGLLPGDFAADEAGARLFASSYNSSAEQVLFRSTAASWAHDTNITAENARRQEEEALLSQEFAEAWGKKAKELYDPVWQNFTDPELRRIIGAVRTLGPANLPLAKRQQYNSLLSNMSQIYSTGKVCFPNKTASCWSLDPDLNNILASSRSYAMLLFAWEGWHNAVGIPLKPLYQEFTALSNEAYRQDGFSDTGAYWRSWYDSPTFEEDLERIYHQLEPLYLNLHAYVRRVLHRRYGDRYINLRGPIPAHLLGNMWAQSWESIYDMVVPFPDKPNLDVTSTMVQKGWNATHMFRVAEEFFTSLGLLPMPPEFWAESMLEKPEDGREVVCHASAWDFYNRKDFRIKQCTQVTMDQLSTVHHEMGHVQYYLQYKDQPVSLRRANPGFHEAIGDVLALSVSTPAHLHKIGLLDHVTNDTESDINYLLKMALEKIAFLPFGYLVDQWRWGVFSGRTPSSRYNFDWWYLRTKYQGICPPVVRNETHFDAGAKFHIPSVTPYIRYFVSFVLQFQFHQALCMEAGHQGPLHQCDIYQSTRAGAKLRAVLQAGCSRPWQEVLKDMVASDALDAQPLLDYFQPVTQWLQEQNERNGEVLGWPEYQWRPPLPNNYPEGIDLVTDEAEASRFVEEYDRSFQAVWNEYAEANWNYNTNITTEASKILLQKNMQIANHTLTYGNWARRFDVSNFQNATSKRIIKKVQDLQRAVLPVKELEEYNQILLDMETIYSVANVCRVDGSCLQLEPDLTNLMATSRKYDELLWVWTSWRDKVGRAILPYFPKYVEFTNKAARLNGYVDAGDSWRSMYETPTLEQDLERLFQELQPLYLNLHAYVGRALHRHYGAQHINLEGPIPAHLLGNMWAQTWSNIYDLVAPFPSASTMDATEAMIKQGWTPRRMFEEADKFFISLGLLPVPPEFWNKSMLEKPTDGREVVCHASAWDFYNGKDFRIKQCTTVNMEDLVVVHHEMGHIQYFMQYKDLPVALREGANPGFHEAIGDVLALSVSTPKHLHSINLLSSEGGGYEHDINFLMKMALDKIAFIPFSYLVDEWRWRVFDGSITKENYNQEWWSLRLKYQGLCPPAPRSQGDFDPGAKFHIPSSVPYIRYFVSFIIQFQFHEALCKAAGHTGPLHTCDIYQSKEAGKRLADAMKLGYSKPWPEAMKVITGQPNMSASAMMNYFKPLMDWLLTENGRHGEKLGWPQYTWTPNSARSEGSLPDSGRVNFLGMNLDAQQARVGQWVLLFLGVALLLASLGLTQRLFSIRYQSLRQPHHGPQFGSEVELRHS
Briefly: Inhibition of angiotensin I-converting enzyme by spectrophotometry (HHL substrate). The following applies: enzyme from rabbit lung; 5 mM HHL; pH 8.3; 37° C., 30 min. It counts as biochemical. How it is done: That is, the absorbance of hippuric acid was measured, which is liberated by incubating hippuryl-L-histidyl-L-leucine (HHL) as substrate in the presence of angiotensin I-converting enzyme extracted from rabbit lung.
as §1
The reaction mixture is as follows:
100 mM phosphate buffer (pH 8.3)
10^-3 ~10^-9 M enzyme inhibitor
0.25 ml of the above mixture was incubated at 37° C. for 30 minutes and the reaction was stopped by adding 0.25 ml of 1 N hydrochloric acid. To this solution, 1.5 ml of ethyl acetate was added in order to extract hippuric acid. 1.0 ml of ethyl acetate layer was collected and evaporated to dryness, and the residue obtained was dissolved in 1.0 ml of water.
The inhibitory activity of angiotensin I-converting enzyme was calculated by the following formula: [formula]

In assay [3] the test system is contractile response to bradykinin (isolated guinea pig ileum). Kind of assay: Augmentation of contractile response of isolated guinea pig ileum to bradykinin. In kind it is cell-based. To be noted: bradykinin 0.005 μg/ml, compound added 5 min before, 30° C., read-out: Bradykinin AC50 (50% augmentation of bradykinin activity inducing the contraction of guinea pig ileum). How it is done: as §2, §3
From the fact that kininase II, which destroys bradykinin having contractive action on isolated guinea pig ileum, is thought to be identical with angiotensin I-converting enzyme, augmentation of the contractile response to bradykinin by test compounds was examined by using bradykinin (0.005 μg/ml) in place of angiotensin I according to the above mentioned method.

Assay [4] deals with pressor response to angiotensin I. Briefly: Inhibition of pressor response to angiotensin I in rats after oral administration. In kind it is in vivo, rat (male Wistar). The following applies: angiotensin I 300 ng/kg i.v.; for Inhibition (%) of pressor response to angiotensin I, 5 min / Inhibition (%) of pressor response to angiotensin I, 15 min / Inhibition (%) of pressor response to angiotensin I, 25 min / Inhibition (%) of pressor response to angiotensin I, 35 min / Inhibition (%) of pressor response to angiotensin I, 45 min / Inhibition (%) of pressor response to angiotensin I, 55 min / Inhibition (%) of pressor response to angiotensin I, 65 min / Inhibition (%) of pressor response to angiotensin I, 75 min / Inhibition (%) of pressor response to angiotensin I, 85 min: dose: 3, 45, 49 1.8 mg/kg, 4, 46 1.3, 50 1.4, 76 2.0, 77 1.5; for Inhibition (%) of pressor response to angiotensin I, 95 min: dose: 45, 49 1.8 mg/kg, 4, 46 1.3, 50 1.4, 76 2.0, 77 1.5; for Inhibition (%) of pressor response to angiotensin I, 105 min / Inhibition (%) of pressor response to angiotensin I, 115 min: dose: 45, 49 1.8 mg/kg, 46 1.3, 50 1.4, 76 2.0, 77 1.5. How it is done: Male Wistar strain rats weighing about 200-300 g were used.
Under ether anesthesia, polyethylene cannulae are inserted into carotid arthery and jugular vein. The cannula to carotid artery is connected to an electric transducer, while the cannula to jugular vein is connected to an apparatus for continuous infusion. After the complete recovery from anesthesia, angiotensin I is infused intravenously in a dose of 300 ng/kg by the apparatus for continuous infusion, and the pressor response is recorded by polygraph (Nihon Koden, RM-150).
The compounds of this invention suspended in 0.5% tragacanth solution are administered orally in a dose of 0.3 ml per 100 g of body weight, and the pressor response to angiotensin I infused intravenously is measured with time.
The inhibitory activity of the compounds against angiotensin I-converting enzyme is expressed as the percent inhibition of pressor response to angiotensin I.

Consider `O=C(O)[C@@H]1CSC(CCS)N1C(=O)CCS` (single isomer, unassigned) [Compound 6a], for which the figures for the IC50 in assay [1] (Cavia porcellus) and in assay [2] were 410 nM and 650 nM, respectively. The AC50 in assay [3] came out at 15 nM.

In the case of `O=C(O)[C@@H]1CSC(CCS)N1C(=O)CCS` (single isomer, unassigned) [Compound 6b], the IC50 came out at 300 nM in assay [1] and 370 nM in assay [2]. Besides, the AC50 in assay [3] turned out to be 3.7 nM.

With `C[C@H](CS)C(=O)N1C(CCS)SC[C@H]1C(=O)O` (single isomer, unassigned) [Compound 8a], the IC50 in assay [1] (Cavia porcellus) was determined as 85 nM; in assay [2], 250 nM. The AC50 in assay [3] (Cavia porcellus) amounted to 1.4 nM.

For `C[C@H](CS)C(=O)N1C(CCS)SC[C@H]1C(=O)O` (single isomer, unassigned) [Compound 8b], the IC50 stood at 140 nM in assay [1] and 290 nM in assay [2]. For the same molecule, the AC50 in assay [3] turned out to be 1.1 nM.

On to `C[C@H](CS)C(=O)N1C(Cc2ccccc2)SC[C@H]1C(=O)O` (single isomer, unassigned) [Compound 10a], for which the IC50 in assay [1] (Cavia porcellus) worked out at 810 nM; in assay [2] it was 2800 nM. In addition, the AC50 in assay [3] (Cavia porcellus) amounted to 13 nM.

Consider `C[C@H](CS)C(=O)N1C(Cc2ccccc2)SC[C@H]1C(=O)O` (single isomer, unassigned) [Compound 10b], for which the IC50 in assay [1] turned out to be 580 nM; in assay [2], 310 nM. Moreover, in assay [3], the AC50 was found to be 10 nM.

For the molecule `C[C@H](CSC(=O)c1ccccc1)C(=O)N1C(C2CCCCC2)SC[C@H]1C(=O)O` (stereo partly drawn) [Compound 3], in assay [4], the “Inhibition (%) of pressor response to angiotensin I, 5 min” value (“Inhibition (%) … to angiotensin I, 5 min” for short) came to 35.2%; the “Inhibition (%) of pressor response to angiotensin I, 15 min” value (“Inhibition (%) … to angiotensin I, 15 min” for short) amounted to 40.8%; the “Inhibition (%) of pressor response to angiotensin I, 25 min” value (from here on “Inhibition (%) … 25 min”) turned out to be 26.9%; the “Inhibition (%) of pressor response to angiotensin I, 35 min” value (“Inhibition (%) … 35 min” below) is given as 17.9%. Also, in assay [4], the “Inhibition (%) of pressor response to angiotensin I, 45 min” value (shortened to “Inhibition (%) … 45 min”) was 14.2%; the “Inhibition (%) of pressor response to angiotensin I, 55 min” value (“Inhibition (%) … 55 min” for short) is reported as 14.8%; the “Inhibition (%) of pressor response to angiotensin I, 65 min” value (“Inhibition (%) … 65 min” below) was found to be 6.3%; the “Inhibition (%) of pressor response to angiotensin I, 75 min” value (shortened to “Inhibition (%) … 75 min”) is given as 9.5%. In addition, the “Inhibition (%) of pressor response to angiotensin I, 85 min” value (“Inhibition (%) … 85 min” for short) in assay [4] is on record as 5.8%.

`O=C(SCCC(=O)N1C(c2ccccc2O)SC[C@H]1C(=O)O)c1ccccc1` (stereo partly drawn) [Compound 45, (4R)-3-(S-Benzoyl-3-mercaptopropanoyl)-2-(2-hydroxyphenyl)-4-thiazolidinecarboxylic acid]: in assay [4], the “Inhibition (%) … to angiotensin I, 5 min” value was 20.0%; the “Inhibition (%) … to angiotensin I, 15 min” value is recorded as 26.6%; the “Inhibition (%) … 25 min” value is 30.1%; the “Inhibition (%) … 35 min” value is 31.8%. Moreover, in assay [4], the “Inhibition (%) … 45 min” value is given as 20.9%; the “Inhibition (%) … 55 min” value came out at 13.5%; the “Inhibition (%) … 65 min” value is on record as 19.0%; the “Inhibition (%) … 75 min” value amounted to 14.9%. Further, in assay [4], the “Inhibition (%) … 85 min” value was determined as 20.9%; the “Inhibition (%) of pressor response to angiotensin I, 95 min” value is listed as 10.3%; the “Inhibition (%) of pressor response to angiotensin I, 105 min” value was 10.3%; the “Inhibition (%) of pressor response to angiotensin I, 115 min” value was determined as 8.8%.

With `COc1ccc(C2SC[C@@H](C(=O)O)N2C(=O)[C@H](C)CSC(=O)c2ccccc2)c(O)c1` (stereo partly drawn) [Compound 76], in assay [4], the “Inhibition (%) … to angiotensin I, 5 min” value is 26.0%; the “Inhibition (%) … to angiotensin I, 15 min” value came out at 45.9%; the “Inhibition (%) … 25 min” value came to 56.1%; the “Inhibition (%) … 35 min” value came out at 55.9%. In assay [4], the “Inhibition (%) … 45 min” value is on record as 58.2%; the “Inhibition (%) … 55 min” value is listed as 47.1%; the “Inhibition (%) … 65 min” value is 48.9%; the “Inhibition (%) … 75 min” value was 40.7%. In assay [4], the “Inhibition (%) … 85 min” value turned out to be 41.7%; the “Inhibition (%) of pressor response to angiotensin I, 95 min” value is on record as 32.2%; the “Inhibition (%) of pressor response to angiotensin I, 105 min” value was 30.6%; the “Inhibition (%) of pressor response to angiotensin I, 115 min” value was found to be 28.5%.

The IC50 is the concentration that inhibits the measured activity by half. As a reminder, the AC50 is the concentration giving half of the maximal activity seen.
